We go through three compounds from DBAASP.

SMILES strings stand for the structures. In brackets after ≈: the same amount, converted by molar mass.

Common to all, as to test: ≥ marks a high value that may be exact or a test limit, other limits are often not marked, values filed in µg/mL are converted to µM
The test system of experiment [1] is Acinetobacter johnsonii NCDC 0072.
The subject of experiment [2] is Bacillus cereus NCDC 0240.
Experiment [3] deals with Escherichia coli MTCC 0723.
Experiment [4] has as its system Listeria monocytogenes ATCC 19111.
The test system of experiment [5] is Pseudomonas aeruginosa ATCC 27853.
Experiment [6] deals with Pseudomonas aeruginosa NCDC 0105.
For experiment [7], the system named is Salmonella enterica subsp. enterica serovar Typhimurium ATCC 14028.
For experiment [8], the system named is Staphylococcus aureus ATCC 29213.
Experiment [9] relates to Staphylococcus aureus NCDC 0111.
In experiment [10] the test system is Bacillus subtilis ATCC 6633.
The subject of experiment [11] is Klebsiella pneumoniae ATCC 27736.
Experiment [12] deals with Pseudomonas aeruginosa ATCC BAA-427.
For a further experiment, the system named is Escherichia coli AB94012.
The subject of experiment [13] is Escherichia coli ATCC 25922.
Experiment [14] deals with Pseudomonas aeruginosa AB93066.
The subject of experiment [15] is Pseudomonas aeruginosa ATCC 9027.
In experiment [16] the test system is Staphylococcus aureus AB94004.
The subject of experiment [17] is Staphylococcus aureus ATCC 25923.
The subject of experiment [18] is Staphylococcus aureus ATCC 6538.
In experiment [19] the test system is Staphylococcus aureus P1374.
Experiment [20] concerns Staphylococcus aureus P1381.

As a reminder, the MIC is the least concentration at which growth counts as inhibited. As for `CC[C@H](C)[C@H](NC(=O)[C@H](Cc1c[nH]c2ccccc12)NC(=O)[C@@H](NC(=O)[C@H](Cc1c[nH]c2ccccc12)NC(=O)[C@@H]1CCCN1C(=O)[C@@H](NC(=O)[C@H](C)N)[C@@H](C)CC)[C@@H](C)CC)C(=O)N[C@@H](Cc1c[nH]c2ccccc12)C(=O)N[C@@H](Cc1c[nH]c2ccccc12)C(=O)N[C@@H](CC(C)C)C(=O)N[C@@H](CC(C)C)C(=O)N[C@@H](CCCN=C(N)N)C(=O)N[C@@H](CCCCN)C(=O)NCC(=O)O` [AIPWIWIWWLLRKG], the minimal inhibitory concentration (MIC) in experiment [1] was found to be 1.5 µM (≈ 2.76 µg/mL); in experiment [2] it was 0.8 µM (≈ 1.47 µg/mL); in experiment [3], 6 µM (≈ 11 µg/mL); in experiment [4], 6 µM (≈ 11 µg/mL); in experiment [5], 6 µM (≈ 11 µg/mL); in experiment [6], 6 µM (≈ 11 µg/mL). Moreover, the MIC in experiment [7] was determined as 1.5 µM (≈ 2.76 µg/mL); in [8], 6 µM (≈ 11 µg/mL); in experiment [9], 0.4 µM (≈ 0.735 µg/mL).

On to `CC[C@H](C)[C@H](NC(=O)CNC(=O)[C@H](CCCN=C(N)N)NC(=O)[C@H](Cc1ccccc1)NC(=O)[C@@H](NC(=O)[C@H](Cc1cnc[nH]1)NC(=O)[C@H](Cc1cnc[nH]1)NC(=O)[C@H](Cc1ccccc1)NC(=O)[C@@H](N)Cc1ccccc1)[C@@H](C)CC)C(=O)N[C@H](C(=O)N[C@@H](Cc1cnc[nH]1)C(=O)N[C@H](C(=O)NCC(=O)N[C@@H](CCCCN)C(=O)N[C@H](C(=O)N[C@H](C(=O)N[C@@H](Cc1cnc[nH]1)C(=O)N[C@@H](CCCN=C(N)N)C(=O)N[C@@H](CC(C)C)C(=O)N[C@H](C(=O)N[C@H](C(=O)NCC(N)=O)[C@@H](C)O)C(C)C)C(C)C)[C@@H](C)O)C(C)C)C(C)C` [FFHHIFRGIVHVGKTVHRLVTG], for which the MIC in experiment [10] came out at 8 µM (≈ 20.5 µg/mL); in [11] it was 6 µM (≈ 15.3 µg/mL); in experiment [12], 12 µM (≈ 30.7 µg/mL).

As for `CC[C@H](C)[C@H](NC(=O)[C@H](CO)NC(=O)[C@H](CCCCN)NC(=O)[C@@H](NC(=O)CNC(=O)[C@H](CCCCN)NC(=O)[C@H](Cc1c[nH]c2ccccc12)NC(=O)[C@H](CC(C)C)NC(=O)[C@H](CCCCN)NC(=O)CNC(=O)[C@H](CC(C)C)NC(=O)[C@@H](NC(=O)[C@@H](N)CO)[C@@H](C)CC)C(C)C)C(=O)N[C@@H](Cc1ccccc1)C(N)=O` [SILGKLWKGVKSIF], the MIC with Escherichia coli AB94012 was found to be 15.9 µM (≈ 25 µg/mL); in [13], 31.7 µM (≈ 50 µg/mL); in experiment [14] it was 31.7 µM (≈ 50 µg/mL); in experiment [15], 15.9 µM (≈ 25 µg/mL); in [16], 3.97 µM (≈ 6.25 µg/mL); in [17], 3.97 µM (≈ 6.25 µg/mL). Further, the MIC worked out at 3.97 µM (≈ 6.25 µg/mL) in [18], 3.97 µM (≈ 6.25 µg/mL) in [19] and 7.93 µM (≈ 12.5 µg/mL) in experiment [20].
